US20260297085A1, “1 H-PYRROLO[2,3-B]PYRIDIN-4-YL]-2-OXOPYRROLIDINE-3-CARBONITRILE DERIVATIVES AS TYROSINE KINASE 2 (TYK2) INHIBITORS FOR THE TREATMENT OF INFLAMMATORY DISEASES” (BIOGEN MA INC., priority 2023, published 2026)
pIC50: −log10 of the molar value. Structures can show the parent of a compound that is named as a salt.

What was measured:
[1] = molecular target: T1, human JAK2 kinase domain (JH1) (Homo sapiens, UniProt O60674); assay: JH1 biochemical assay for JAK2 (ADP-Glo kinase assay, recombinant JH1 catalytic domain, JAK3-974 peptide, 15 μM ATP)
T1 construct: recombinantly generated catalytic kinase (also known as JH1) domain of human JAK1, JAK2, JAK3 and TYK2
T1 sequence (O60674 849-1124 limits assumed): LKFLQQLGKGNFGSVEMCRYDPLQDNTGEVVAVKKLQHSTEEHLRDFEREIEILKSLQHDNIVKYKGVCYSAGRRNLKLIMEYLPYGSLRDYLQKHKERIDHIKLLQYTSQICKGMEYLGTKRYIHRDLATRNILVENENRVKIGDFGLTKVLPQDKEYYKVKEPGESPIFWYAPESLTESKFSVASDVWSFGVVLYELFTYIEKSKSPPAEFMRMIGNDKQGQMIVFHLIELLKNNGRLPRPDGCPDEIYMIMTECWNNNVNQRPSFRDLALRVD
Experimental: (§1) Compounds of the disclosure were assessed for their ability to inhibit TYK2, JAK1, JAK2, and JAK3 activity. The inhibitory properties of the compounds of the disclosure described herein can be evidenced by testing in any one of the following protocols.
(§2) The kinase activity of recombinantly generated catalytic kinase (also known as JH1) domain of human JAK1, JAK2, JAK3 and TYK2 were evaluated in a plate-based assay using the ADP-Glo™ Kinase Assay platform. Specifically, 4 nM of recombinant JAK1 kinase domain is used to phosphorylate 50 μM of a JAK3-342 (sequence ALVDGYFRLTT) peptide in the presence of 35 μM ATP. Catalytic activities of recombinant JAK2, JAK3 and TYK2 kinase domain (0.2, 0.3 and 2 nM, respectively) are evaluated by the phosphorylation status of the JAK3-974 (50 μM; sequence LPLDKDYYVVR) peptide with the addition of ATP (15, 4 and 10 μM, respectively). The reactions proceed for 100 minutes and the catalytic activity is quantified by first depleting the unused ATP, converting the hydrolyzed ADP into ATP to generate luminescence in a luciferase reaction; which is the basis of the ADP-Glo platform. Compounds are tested at either 10 μM or 1 μM top concentration, 11 points of 3-fold dilution. The data is normalized and the percent activity versus log concentration of compound is fitted with a 4-parameter logistic model to generate a curve and an IC50 value.

[2] = molecular target: T2, human JAK1 kinase domain (JH1) (Homo sapiens, UniProt P23458); assay: JH1 biochemical assay for JAK1 (ADP-Glo kinase assay, recombinant JH1 catalytic domain, JAK3-342 peptide, 35 μM ATP)
T2 construct: recombinantly generated catalytic kinase (also known as JH1) domain of human JAK1, JAK2, JAK3 and TYK2
T2 sequence (P23458 875-1153 limits assumed): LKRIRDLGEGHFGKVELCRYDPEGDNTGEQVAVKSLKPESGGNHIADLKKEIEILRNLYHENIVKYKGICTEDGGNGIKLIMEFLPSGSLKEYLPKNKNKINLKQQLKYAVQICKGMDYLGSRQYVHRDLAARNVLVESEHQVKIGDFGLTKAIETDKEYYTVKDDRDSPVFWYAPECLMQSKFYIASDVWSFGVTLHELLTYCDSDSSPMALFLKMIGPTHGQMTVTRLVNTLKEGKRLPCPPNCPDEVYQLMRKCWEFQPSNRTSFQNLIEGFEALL
Experimental: as §1, §2

[3] = molecular target: T3, human TYK2 kinase domain (JH1) (Homo sapiens, UniProt P29597); assay: JH1 biochemical assay for TYK2 (ADP-Glo kinase assay, recombinant JH1 catalytic domain, JAK3-974 peptide, 10 μM ATP)
T3 construct: recombinantly generated catalytic kinase (also known as JH1) domain of human JAK1, JAK2, JAK3 and TYK2
T3 sequence (P29597 897-1176 limits assumed): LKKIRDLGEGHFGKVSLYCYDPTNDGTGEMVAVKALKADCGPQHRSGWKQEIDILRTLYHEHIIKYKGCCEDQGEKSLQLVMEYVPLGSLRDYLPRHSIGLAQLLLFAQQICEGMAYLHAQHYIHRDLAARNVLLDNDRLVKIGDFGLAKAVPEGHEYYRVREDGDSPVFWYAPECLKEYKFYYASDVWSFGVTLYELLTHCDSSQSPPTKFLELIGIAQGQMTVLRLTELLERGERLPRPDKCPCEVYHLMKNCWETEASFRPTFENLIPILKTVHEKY
Experimental: as §1, §2

[4] = molecular target: T4, human JAK3 kinase domain (JH1) (Homo sapiens, UniProt P52333); assay: JH1 biochemical assay for JAK3 (ADP-Glo kinase assay, recombinant JH1 catalytic domain, JAK3-974 peptide, 4 μM ATP)
T4 construct: recombinantly generated catalytic kinase (also known as JH1) domain of human JAK1, JAK2, JAK3 and TYK2
T4 sequence (P52333 822-1111 limits assumed): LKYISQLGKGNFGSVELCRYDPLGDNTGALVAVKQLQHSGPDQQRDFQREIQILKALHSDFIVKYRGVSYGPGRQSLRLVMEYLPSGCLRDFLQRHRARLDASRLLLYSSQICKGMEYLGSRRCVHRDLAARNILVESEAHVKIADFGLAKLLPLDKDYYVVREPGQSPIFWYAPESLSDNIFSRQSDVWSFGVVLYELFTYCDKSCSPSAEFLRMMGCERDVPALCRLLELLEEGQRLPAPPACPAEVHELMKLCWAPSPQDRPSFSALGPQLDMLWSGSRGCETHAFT
Experimental: as §1, §2

| Structure (SMILES) | pIC50 ([1]; JH1 kinase domain, ADP-Glo) | pIC50 ([2]; JH1 kinase domain, ADP-Glo) | pIC50 ([3]; JH1 kinase domain, ADP-Glo) | pIC50 ([4]; JH1 kinase domain, ADP-Glo) | pIC50 ([1]; JAK2 JH1, ADP-Glo) | pIC50 ([2]; JAK1 JH1, ADP-Glo) | pIC50 ([3]; TYK2 JH1, ADP-Glo) | pIC50 ([4]; JAK3 JH1, ADP-Glo) |
| --- | --- | --- | --- | --- | --- | --- | --- | --- |
| C[C@@H]1CN(c2ccnn3cc(-c4nccc(C(F)(F)F)n4)cc23)C(=O)[C@]1(C#N)C1CC1 [Example 120, (3R,4S)-3-cyclopropyl-4-methyl-2-oxo-1-(6-(4-(trifluoromethyl)pyrimidin-2-yl)pyrrolo[1,2-b]pyridazin-4-yl)pyrrolidine-3-carbonitrile trifluoroacetate] | < 5.00 | 5.00 to 5.30 | < 7.00 | 5.30 to 6.00 | – | – | – | – |
| C[C@@H]1CN(c2ccnn3cc(-c4cncnc4)cc23)C(=O)[C@]1(C#N)C1CC1 [Example 92, (3R,4S)-3-cyclopropyl-4-methyl-2-oxo-1-(6-(pyrimidin-5-yl)pyrrolo[1,2-b]pyridazin-4-yl)pyrrolidine-3-carbonitrile] | 5.00 to 5.30 | 5.30 to 6.00 | 7.00 to 7.30 | 5.30 to 6.00 | – | – | – | – |
| COC[C@]1(C#N)CCN(c2ccnn3cc(-c4cnn(C)c4)cc23)C1=O (single isomer, unassigned) [Example 41] | 5.00 to 5.30 | < 5.00 | < 7.00 | 5.00 to 5.30 | – | – | – | – |
| Cn1cc(-c2cc3c(N4CC[C@H](C5CC5)C4=O)ccnn3c2)cn1 (single isomer, unassigned) [Example 36] | 5.00 to 5.30 | < 5.00 | < 7.00 | < 5.00 | – | – | – | – |
| Cc1cc(-c2cc3c(N4C[C@@H](C)[C@@](C#N)(C5CC5)C4=O)ccnn3c2)ncc1F [Example 142, (3R,4S)-3-cyclopropyl-1-(6-(5-fluoro-4-methylpyridin-2-yl)pyrrolo[1,2-b]pyridazin-4-yl)-4-methyl-2-oxopyrrolidine-3-carbonitrile trifluoroacetate] | 5.30 to 6.00 | 5.30 to 6.00 | 7.30 to 7.70 | 5.30 to 6.00 | – | – | – | – |
| Cc1cc(-c2cn3nccc3c(N3C[C@@H](C)[C@@](C#N)(C4CC4)C3=O)n2)ccn1 [Example 241, (3R,4S)-3-cyclopropyl-4-methyl-1-(6-(2-methylpyridin-4-yl)pyrazolo[1,5-a]pyrazin-4-yl)-2-oxopyrrolidine-3-carbonitrile trifluoroacetate] | – | – | – | – | 5.30 to 6.00 | 6.00 to 7.00 | 7.00 to 7.30 | 5.30 to 6.00 |
| Cc1ncn(-c2cc3c(N4C[C@@H](C)[C@@](C#N)(C5CC5)C4=O)ccnn3c2)n1 [Example 342, (3R,4S)-3-cyclopropyl-4-methyl-1-(6-(3-methyl-1H-1,2,4-triazol-1-yl)pyrrolo[1,2-b]pyridazin-4-yl)-2-oxopyrrolidine-3-carbonitrile] | – | – | – | – | 5.30 to 6.00 | 5.30 to 6.00 | < 7.00 | 5.30 to 6.00 |
| Cn1cc(-c2cc3c(N4CC[C@@](C(F)F)(C5CC5)C4=O)ccnn3c2)cn1 [Example 15, (R)-3-cyclopropyl-3-(difluoromethyl)-1-(6-(1-methyl-1H-pyrazol-4-yl)pyrrolo[1,2-b]pyridazin-4-yl)pyrrolidin-2-one] | 5.30 to 6.00 | 5.30 to 6.00 | < 7.00 | 5.30 to 6.00 | – | – | – | – |
| COc1cnc(-c2cc3c(N4C[C@@H](C)[C@@](C#N)(C5CC5)C4=O)ccnn3c2)nc1 [Example 136, (3R,4S)-3-cyclopropyl-1-(6-(5-methoxypyrimidin-2-yl)pyrrolo[1,2-b]pyridazin-4-yl)-4-methyl-2-oxopyrrolidine-3-carbonitrile trifluoroacetate] | 5.00 to 5.30 | 5.30 to 6.00 | 7.00 to 7.30 | 5.30 to 6.00 | – | – | – | – |
| C[C@@H]1C[C@](C#N)(C2CC2)C(=O)N1c1ccnn2cc(-c3cnn(C)c3)cc12 [Example 16, (3R,5R)-3-cyclopropyl-5-methyl-1-(6-(1-methyl-1H-pyrazol-4-yl)pyrrolo[1,2-b]pyridazin-4-yl)-2-oxopyrrolidine-3-carbonitrile] | 6.00 to 7.00 | 5.00 to 5.30 | < 7.00 | < 5.00 | – | – | – | – |
| C[C@@H]1CN(c2nc(-c3cncnc3)cn3nccc23)C(=O)[C@]1(C#N)C1CC1 [Example 265, (3R,4S)-3-cyclopropyl-4-methyl-2-oxo-1-(6-(pyrimidin-5-yl)pyrazolo[1,5-a]pyrazin-4-yl)pyrrolidine-3-carbonitrile trifluoroacetate] | – | – | – | – | 5.30 to 6.00 | 5.30 to 6.00 | 7.00 to 7.30 | 5.30 to 6.00 |
